These results are taken from PMC7187334 (Clinical Pharmacology in Drug Development, 2019).

Data set [1] deals with patients receiving statins. More on the design: method as in PMID 28845751. The settings on record: cited from earlier work.
Data set [2] relates to patients with coronary artery disease. More on the design: method as in earlier work. The settings on record: cited from earlier work.
The next data set deals with healthy volunteers. Put plainly: Phase 1 crossover study: safety and tolerability (adverse events). It counts as in vivo, human. The settings on record: rosuvastatin 10 mg, fasted, n = 12. The method, then: Each participant received 5 single‐dose oral study treatments (A‐E), with a minimum washout period of 7 days between each treatment period.
The safety set included all participants who received treatment in the study and for whom any postdose safety data were available. Safety was assessed throughout the study by monitoring adverse events, vital signs (systolic and diastolic blood pressure, pulse rate, and body temperature), and electrocardiographic parameters and by conducting physical examinations and laboratory assessments (hematology, blood chemistry, and urinalysis).

A short description of data set [3]: Phase 1 crossover study: rosuvastatin plasma pharmacokinetics. It counts as in vivo, human. The settings on record: for AUC(0-inf) / half-life / AUC(0-t) / Cmax: human, plasma, oral, 10 mg. The method, then: The primary objective was to evaluate the pharmacokinetics of oral rosuvastatin when administered alone and in combination with oral AZD5718. […] Each participant received 5 single-dose oral study treatments (A-E), with a minimum washout period of 7 days between each treatment period. Participants were randomly assigned to treatments in the order A, B, C, D, E or B, A, C, D, E. Treatments were: […] […] Participants fasted for at least 10 hours before treatment and for at least 4 hours after treatment. Participants receiving treatment E consumed a high-fat breakfast 30 minutes before treatment. Water was permitted as desired except within 1 hour of administration. […] Doses were taken with 240 mL of water. […] At a minimum, each analytical run included a calibration curve, a matrix blank, a control zero sample (matrix blank containing internal standard), a reagent blank, and duplicate quality control samples at 3 concentrations within the calibration range. […] Both assessments were well within the acceptance criteria. […] The pharmacokinetic analysis set for rosuvastatin included all participants who received both rosuvastatin treatments. […] Statistical analyses were performed by […] using SAS version 9.4. Rosuvastatin pharmacokinetics were analyzed using a mixed-effects model, with log-transformed AUC, AUC0-last, and Cmax as the response variables; treatment sequence, period, and treatment as fixed effects; and participant nested within treatment sequence as a random effect. […] LS mean differences and 90%CIs for the effect of formulation or food for log-transformed variables were back transformed to geometric mean ratios and presented as percentages with 90% CIs.

On the set-up of data set [4]: method as in PMID 15116058. As to conditions: coadministered with gemfibrozil; cited from earlier work.
The subject of data set [5] is patients with acute coronary syndrome. More on the design: method as in PMID 20190281. As to conditions: cited from earlier work.
In data set [6] the test system is patients with coronary artery disease. Also noted: method as in PMID 28834471. As to conditions: cited from earlier work.

Like-named read-outs stand apart in the source and are kept apart here.

Take “canakinumab: anti-interleukin-1β antibody”: the “Hazard ratio, recurrent cardiovascular events vs placebo” value in data set [1] (P = .021) is 0.85. Further, in data set [1] (canakinumab together with statins, placebo and statins 4.50), the “Rate of recurrent cardiovascular events” value was 3.90 events per 100 person‐years.

Consider `CC(c1cc2ccccc2s1)N(O)C(N)=O` (centres unmarked) [zileuton], for which, in data set [2], the “Flow-mediated dilation in the brachial artery” value is “improved flow‐mediated dilation” and the Leukotriene production result is on record as “reduced leukotriene production”.

The Cmax is the highest concentration seen after dosing. With `CC(C)c1nc(N(C)S(C)(=O)=O)nc(-c2ccc(F)cc2)c1/C=C/[C@@H](O)C[C@@H](O)CC(=O)O` [Rosuvastatin, rosuvastatin], the “Participants with influenza-like illness” value in the data set with healthy volunteers was 0 n (%). In data set [3] (coadministered with AZD5718 200 mg vs alone, 90% CI 86%-116%), the “Rosuvastatin AUC0-inf (relative bioavailability), ratio of geometric LS means” value was 100%. In data set [3] (coadministered with AZD5718 200 mg vs alone, 90% CI 87%-106%), the “Rosuvastatin AUC0-last, ratio of geometric LS means” value is 96%. Moreover, in data set [3] (coadministered with AZD5718 200 mg vs alone, 90% CI 107%-146%), the “Rosuvastatin Cmax, ratio of geometric LS means” value is 125%. Moreover, the “Increase in rosuvastatin Cmax” value in data set [3] (coadministration with AZD5718 tablets vs alone) is given as “about 25%”; in data set [4], 2 fold. The AUC(0-inf) in data set [3] (rosuvastatin 10 mg alone, fasted, n = 9, read-out: Rosuvastatin AUC0-inf, arithmetic mean (SD)) amounted to 45.3 ng·h/mL; in data set [3] (rosuvastatin 10 mg alone, fasted, n = 9, read-out: Rosuvastatin AUC0-inf, geometric mean (%CV)) it was 41 ng·h/mL; in data set [3] (rosuvastatin 10 mg plus AZD5718 200-mg tablet, fasted, n = 10, read-out: Rosuvastatin AUC0-inf, arithmetic mean (SD)), 56.9 ng·h/mL; in data set [3] (rosuvastatin 10 mg plus AZD5718 200-mg tablet, fasted, n = 10, read-out: Rosuvastatin AUC0-inf, geometric mean (%CV)), 50.5 ng·h/mL. For the same molecule, the half-life in data set [3] (rosuvastatin 10 mg alone, fasted, n = 9, read-out: Rosuvastatin t1/2 lambda z, arithmetic mean (SD) (converted)) is 16 h; in data set [3] (rosuvastatin 10 mg alone, fasted, n = 9, read-out: Rosuvastatin t1/2 lambda z, geometric mean (%CV) (converted)), 14.7 h; in data set [3] (rosuvastatin 10 mg plus AZD5718 200-mg tablet, fasted, n = 10, read-out: Rosuvastatin t1/2 lambda z, arithmetic mean (SD) (converted)), 16.4 h; in data set [3] (rosuvastatin 10 mg plus AZD5718 200-mg tablet, fasted, n = 10, read-out: Rosuvastatin t1/2 lambda z, geometric mean (%CV) (converted)) it was 16.5 h. Besides, the AUC(0-t) in data set [3] (rosuvastatin 10 mg alone, fasted, n = 12, read-out: Rosuvastatin AUC0-last, arithmetic mean (SD)) worked out at 54.2 ng·h/mL; in data set [3] (rosuvastatin 10 mg alone, fasted, n = 12, read-out: Rosuvastatin AUC0-last, geometric mean (%CV)) it was 45.3 ng·h/mL; in data set [3] (rosuvastatin 10 mg plus AZD5718 200-mg tablet, fasted, read-out: Rosuvastatin AUC0-last, arithmetic mean (SD)), 49.4 ng·h/mL; in data set [3] (rosuvastatin 10 mg plus AZD5718 200-mg tablet, fasted, read-out: Rosuvastatin AUC0-last, geometric mean (%CV)) it was 43.5 ng·h/mL. Moreover, the Cmax in data set [3] (rosuvastatin 10 mg alone, fasted, n = 12, read-out: Rosuvastatin Cmax, arithmetic mean (SD)) was 5.56 ng/mL; in data set [3] (rosuvastatin 10 mg alone, fasted, n = 12, read-out: Rosuvastatin Cmax, geometric mean (%CV)), 4.59 ng/mL; in data set [3] (rosuvastatin 10 mg plus AZD5718 200-mg tablet, fasted, read-out: Rosuvastatin Cmax, arithmetic mean (SD)), 6.74 ng/mL; in data set [3] (rosuvastatin 10 mg plus AZD5718 200-mg tablet, fasted, read-out: Rosuvastatin Cmax, geometric mean (%CV)), 5.74 ng/mL. In data set [3] (rosuvastatin 10 mg alone, fasted, n = 12), the “Rosuvastatin tmax, median (range)” value is 5.00 (0.50‐6.00) h. In addition, the “Increase in rosuvastatin AUC” value in data set [4] was 2 fold.

Turning to `C[C@H](C#Cc1ccc(Cc2ccc(F)cc2)s1)N(O)C(N)=O` [VIA‐2291], the “Left ventricular ejection fraction” value in data set [5] (dose-dependent) is listed as “improved left ventricular ejection fraction”. In data set [5] (phase 2), the “Appearance of new coronary lesions” value is “prevented the appearance of new coronary lesions”, the “Leukotriene B4 production” value was “reduced leukotriene B4 production” and the Noncalcified plaque volume result is “lowered noncalcified plaque volume”.

B1: evolocumab: proprotein convertase subtilisin/kexin type 9-neutralizing antibody (antibody, chains of the INN, looked up, V domains shown)
VH: EVQLVQSGAEVKKPGASVKVSCKASGYTLTSYGISWVRQAPGQGLEWMGWVSFYNGNTNYAQKLQGRGTMTTDPSTSTAYMELRSLRSDDTAVYYCARGYGMDVWGQGTTVTVSS
VL: ESALTQPASVSGSPGQSITISCTGTSSDVGGYNSVSWYQQHPGKAPKLMIYEVSNRPSGVSNRFSGSKSGNTASLTISGLQAEDEADYYCNSYTSTSMVFGGGTKLTVL
On to B1, for which the “Hazard ratio, recurrent cardiovascular events vs placebo” value in data set [6] (P < .001) is reported as 0.85. Also, the “LDL cholesterol level, median” value in data set [6] (evolocumab together with statins) was 30 mg/dL. Besides, the “Rate of recurrent cardiovascular events” value in data set [6] (evolocumab together with statins, placebo 11.3%) was 9.8%.
